Source: patent publication US5602106A, “16-membered macrolide derivatives” (priority 1993, dated 1997)
In brackets after ≈: the same amount, converted by molar mass. Like-named read-outs stand apart in the source and are kept apart here.

What was measured:
Assay type in all cases: cell-based
B. catarrhalis W-0500 = assay: MIC, agar plate dilution method; conditions: Moraxella catarrhalis
Method: (§1) The effect of the first aspect of the present invention resides in the creation of a novel and useful 16-membered macrolide derivative. Antimicrobial activities of the compounds of the present invention were determined by measuring minimum inhibitory concentration (MIC). Minimum inhibitory concentration was determined by the agar plate dilution method in the following manner.
(§2) Test strains were subjected to seed culture using Sensitivity test broth (STB, Nissui Pharmaceutical) except that the strains belonging to the genus Streptococcus, Branhamella and Haemophilus were cultured on blood agar plate. A 5 μl portion of cell suspension of the test strains having about 10^6 CFU/ml was inoculated into Sensitivity disk agar (SDA, Nissui Pharmaceutical) supplemented with 5% horse blood and incubated at 37° C. for 20 hours. Then, MIC was measured. […] Antimicrobial activities in vitro of the compounds (1) and (2) are shown in Table 1, and those of the compounds (3) and (4) in Table 3.

B. catarrhalis W-0506 = assay: MIC, agar plate dilution method; conditions: Moraxella catarrhalis
Method: as §1, §2

E. coli NIHJ JC-2 = assay: MIC, agar plate dilution method; conditions: Escherichia coli, NIHJJC2, 20 h, 37° C., SDA with 5% horse blood, read-out: Antimicrobial activity (MIC)
Method: as §1, §2

E. faecalis W-73 = assay: MIC, agar plate dilution method; conditions: Enterococcus faecalis, W73, 20 h, read-out: Antimicrobial activity (MIC)
Method: as §1, §2

H. influenzae Type b = assay: MIC, agar plate dilution method; conditions: Haemophilus influenzae, 20 h, read-out: Antimicrobial activity (MIC), 37° C., 20 hours, SDA with 5% horse blood
Method: as §1, §2

K. pneumoniae PCI602 = assay: MIC, agar plate dilution method; conditions: Klebsiella pneumoniae, PCI602, 20 h, 37° C., SDA with 5% horse blood, read-out: Antimicrobial activity (MIC)
Method: as §1, §2

M. luteus ATCC9341 = assay: MIC, agar plate dilution method; conditions: Micrococcus luteus, ATCC9341; 37° C., 20 hours, SDA with 5% horse blood; read-out: Antimicrobial activity (MIC)
Method: as §1, §2

S. aureus 209P JC-1 = assay: MIC, agar plate dilution method; conditions: Staphylococcus aureus, 209P, 20 h
Method: as §1, §2

S. aureus M126 = assay: MIC, agar plate dilution method; conditions: Staphylococcus aureus, 37° C., 20 hours, SDA with 5% horse blood, read-out: Antimicrobial activity (MIC)
Method: as §1, §2

S. aureus M133 = assay: MIC, agar plate dilution method; conditions: Staphylococcus aureus, M133, 20 h
Method: as §1, §2

S. aureus MS15009/pMS98 = assay: MIC, agar plate dilution method; conditions: Staphylococcus aureus, MS15009/PMS98, 20 h, read-out: Antimicrobial activity (MIC), 37° C., 20 hours, SDA with 5% horse blood
Method: as §1, §2

S. aureus MS15009/pMS99 = assay: MIC, agar plate dilution method; conditions: Staphylococcus aureus, MS15009/PMS99, 20 h, read-out: Antimicrobial activity (MIC)
Method: as §1, §2

S. aureus MS15026 = assay: MIC, agar plate dilution method; conditions: Staphylococcus aureus, 37° C., 20 hours, SDA with 5% horse blood, read-out: Antimicrobial activity (MIC)
Method: as §1, §2

S. aureus MS15027 = assay: MIC, agar plate dilution method; conditions: Staphylococcus aureus, MS15027, 20 h, read-out: Antimicrobial activity (MIC), 37° C., 20 hours, SDA with 5% horse blood
Method: as §1, §2

S. epidermidis ATCC14990 = assay: MIC, agar plate dilution method; conditions: Staphylococcus epidermidis
Method: as §1, §2

S. pneumoniae IP692 = assay: MIC, agar plate dilution method; conditions: Streptococcus pneumoniae, IP692, 20 h
Method: as §1, §2

S. pneumoniae Type 1 = assay: MIC, agar plate dilution method; conditions: Streptococcus pneumoniae, TYPE1; 37° C., 20 hours, SDA with 5% horse blood; read-out: Antimicrobial activity (MIC)
Method: as §1, §2

S. pyogenes Cook = assay: MIC, agar plate dilution method; conditions: Streptococcus pyogenes
Method: as §1, §2

test strains = assay: Antimicrobial activity in vitro, test strains overall; conditions: for improvement of MIC values over corresponding compounds with free 3"-hydroxyl (midecamycin M1, leucomycin V): most of the test strains; for antimicrobial activities compared with compound (58): vs compound (58); for antimicrobial activities in comparison with rokitamycin: vs rokitamycin
Method: as §1, §2

[1] = tested on: clinically important Gram-positive bacteria; assay: Antimicrobial activity / growth inhibition
Method: as §1, §2

H. influenzae 9334 = assay: MIC, agar plate dilution method; conditions: Haemophilus influenzae, 9334, 20 h, read-out: Antimicrobial activity (MIC), 37° C., 20 hours, SDA with 5% horse blood
Method: as §1, §2

[2] = W0500, 37° C., 20 hours, SDA with 5% horse blood, read-out: Antimicrobial activity (MIC)
[3] = W0506, 37° C., 20 hours, SDA with 5% horse blood, read-out: Antimicrobial activity (MIC)
[4] = read-out: Antimicrobial activity (MIC), 37° C., 20 hours, SDA with 5% horse blood
[5] = 37° C., 20 hours, SDA with 5% horse blood, read-out: Antimicrobial activity (MIC)
[6] = ATCC14990, 20 h, read-out: Antimicrobial activity (MIC), 37° C., 20 hours, SDA with 5% horse blood
[7] = W0500, 20 h, read-out: Antimicrobial activity (MIC), 37° C., 20 hours, SDA with 5% horse blood
[8] = W0506, 20 h, read-out: Antimicrobial activity (MIC), 37° C., 20 hours, SDA with 5% horse blood

Row | Structure (SMILES) | MIC (E. coli NIHJ JC-2) | MIC (E. faecalis W-73) | MIC (H. influenzae Type b) | MIC (K. pneumoniae PCI602) | MIC (M. luteus ATCC9341) | MIC (S. aureus M126) | MIC (S. aureus MS15009/pMS98) | MIC (S. aureus MS15009/pMS99) | MIC (S. aureus MS15026) | MIC (S. aureus MS15027) | MIC (S. pneumoniae IP692; [5]) | MIC (S. pneumoniae Type 1) | MIC (S. pyogenes Cook; [5]) | antimicrobial activities (in words) [1] | MIC (S. aureus M133; [4]) | MIC (S. epidermidis ATCC14990; [6]) | MIC (B. catarrhalis W-0500; [7]) | MIC (B. catarrhalis W-0506; [8]) | MIC (H. influenzae 9334) | MIC (S. aureus 209P JC-1; [5]) | other results
1 | CCC(=O)O[C@@H]1CC(=O)O[C@H](C)C/C=C/C=C/[C@H](O)[C@H](C)C[C@H](CC=O)[C@H](O[C@@H]2O[C@H](C)[C@@H](O[C@H]3C[C@@](C)(OC)[C@@H](O)[C@H](C)O3)[C@H](N(C)C)[C@H]2O)[C@H]1OC [(3), 3"-O-methylmidecamycin M1] | > 100 µg/mL | 0.78 µg/mL (≈ 1.01 µM) | 50 µg/mL (≈ 64.8 µM) | > 100 µg/mL | 0.1 µg/mL (≈ 0.13 µM) | > 100 µg/mL | 0.78 µg/mL (≈ 1.01 µM) | > 100 µg/mL | > 100 µg/mL | 0.78 µg/mL (≈ 1.01 µM) | 0.1 µg/mL (≈ 0.13 µM) | 0.1 µg/mL (≈ 0.13 µM) | 0.2 µg/mL (≈ 0.259 µM) | strong antimicrobial activities | – | – | – | – | – | – | MIC (B. catarrhalis W-0500; [2]): 3.13 µg/mL (≈ 4.05 µM); MIC (B. catarrhalis W-0506; [3]): 3.13 µg/mL (≈ 4.05 µM); MIC (S. aureus 209P JC-1; [4]): 0.39 µg/mL (≈ 0.505 µM); MIC (S. aureus M133; [5]): 1.56 µg/mL (≈ 2.02 µM); MIC (S. epidermidis ATCC14990; ATCC14990, 37° C., 20 hours, SDA with 5% horse blood, read-out: Antimicrobial activity (MIC)): 1.56 µg/mL (≈ 2.02 µM); improvement of MIC values over corresponding compounds with free 3"-hydroxyl (midecamycin M1, leucomycin V) (test strains): improved two to three times; antimicrobial activities in comparison with midecamycin M1 (test strains; presumed in vivo metabolite of compound (5)): superior antimicrobial activities
2 | CO[C@@H]1[C@@H](O[C@@H]2O[C@H](C)[C@@H](O[C@H]3C[C@@](C)(OC)[C@@H](O)[C@H](C)O3)[C@H](N(C)C)[C@H]2O)[C@@H](CC=O)C[C@@H](C)[C@@H](O)/C=C/C=C/C[C@@H](C)OC(=O)C[C@H]1O [(4), 3"-O-methylleucomycin V] | > 100 µg/mL | 0.78 µg/mL (≈ 1.09 µM) | 12.5 µg/mL (≈ 17.5 µM) | > 100 µg/mL | 0.05 µg/mL (≈ 0.0698 µM) | > 100 µg/mL | 0.39 µg/mL (≈ 0.545 µM) | > 100 µg/mL | > 100 µg/mL | 0.78 µg/mL (≈ 1.09 µM) | – | 0.05 µg/mL (≈ 0.0698 µM) | – | strong antimicrobial activities | 0.78 µg/mL (≈ 1.09 µM) | 0.78 µg/mL (≈ 1.09 µM) | – | – | – | – | MIC (B. catarrhalis W-0500; [2]): 1.56 µg/mL (≈ 2.18 µM); MIC (B. catarrhalis W-0506; [3]): 1.56 µg/mL (≈ 2.18 µM); MIC (S. aureus 209P JC-1; [4]): 0.39 µg/mL (≈ 0.545 µM); MIC (S. pneumoniae IP692; [4]): 0.1 µg/mL (≈ 0.14 µM); MIC (S. pyogenes Cook; 20 h, read-out: Antimicrobial activity (MIC), 37° C., 20 hours, SDA with 5% horse blood): 0.1 µg/mL (≈ 0.14 µM); improvement of MIC values over corresponding compounds with free 3"-hydroxyl (midecamycin M1, leucomycin V) (test strains): improved two to three times
3 | CCCCC(=O)O[C@H]1[C@H](C)O[C@@H](O[C@H]2[C@H](N(C)C)[C@@H](O)[C@H](O[C@H]3[C@@H](CC=O)C[C@@H](C)[C@@H](O)/C=C/C=C/C[C@@H](C)OC(=O)C[C@@H](O)[C@@H]3OC)O[C@@H]2C)C[C@@]1(C)OC [(48), 3"-O-methyl-4"-O-n-valerylleucomycin V] | > 100 µg/mL | 0.78 µg/mL (≈ 0.975 µM) | 6.25 µg/mL (≈ 7.81 µM) | > 100 µg/mL | < 0.025 µg/mL | > 100 µg/mL | 0.2 µg/mL (≈ 0.25 µM) | > 100 µg/mL | > 100 µg/mL | 0.2 µg/mL (≈ 0.25 µM) | < 0.025 µg/mL | < 0.025 µg/mL | < 0.025 µg/mL | markedly strong microbial activities | 0.2 µg/mL (≈ 0.25 µM) | 0.2 µg/mL (≈ 0.25 µM) | 0.1 µg/mL (≈ 0.125 µM) | 0.2 µg/mL (≈ 0.25 µM) | 0.78 µg/mL (≈ 0.975 µM) | 0.05 µg/mL (≈ 0.0625 µM) | antimicrobial activities compared with compound (58) (test strains): slightly superior antimicrobial activities; antimicrobial activities in comparison with rokitamycin (test strains): markedly excellent antimicrobial activities
4 | CO[C@@H]1[C@@H](O[C@@H]2O[C@H](C)[C@@H](O[C@H]3C[C@@](C)(OC)[C@@H](OC(=O)C(C)C)[C@H](C)O3)[C@H](N(C)C)[C@H]2O)[C@@H](CC=O)C[C@@H](C)[C@@H](O)/C=C/C=C/C[C@@H](C)OC(=O)C[C@H]1O [(53), 4"-O-isobutyryl-3"-Omethylleucomycin V] | > 100 µg/mL | 0.78 µg/mL (≈ 0.992 µM) | 6.25 µg/mL (≈ 7.95 µM) | > 100 µg/mL | < 0.025 µg/mL | > 100 µg/mL | 0.2 µg/mL (≈ 0.254 µM) | > 100 µg/mL | > 100 µg/mL | 0.2 µg/mL (≈ 0.254 µM) | < 0.025 µg/mL | < 0.025 µg/mL | < 0.025 µg/mL | markedly strong microbial activities | 0.2 µg/mL (≈ 0.254 µM) | 0.2 µg/mL (≈ 0.254 µM) | 0.2 µg/mL (≈ 0.254 µM) | 0.2 µg/mL (≈ 0.254 µM) | 0.39 µg/mL (≈ 0.496 µM) | 0.05 µg/mL (≈ 0.0636 µM) | antimicrobial activities compared with compound (58) (test strains): slightly superior antimicrobial activities; antimicrobial activities in comparison with rokitamycin (test strains): markedly excellent antimicrobial activities
5 | CO[C@@H]1[C@@H](O[C@@H]2O[C@H](C)[C@@H](O[C@H]3C[C@@](C)(OC)[C@@H](OC(=O)CC(C)C)[C@H](C)O3)[C@H](N(C)C)[C@H]2O)[C@@H](CC=O)C[C@@H](C)[C@@H](O)/C=C/C=C/C[C@@H](C)OC(=O)C[C@H]1O [(58), 3"-O-methylleucomycin A1] | > 100 µg/mL | 0.78 µg/mL (≈ 0.975 µM) | 6.25 µg/mL (≈ 7.81 µM) | > 100 µg/mL | < 0.025 µg/mL | > 100 µg/mL | 0.2 µg/mL (≈ 0.25 µM) | > 100 µg/mL | > 100 µg/mL | 0.2 µg/mL (≈ 0.25 µM) | 0.05 µg/mL (≈ 0.0625 µM) | 0.05 µg/mL (≈ 0.0625 µM) | 0.05 µg/mL (≈ 0.0625 µM) | markedly strong microbial activities | 0.39 µg/mL (≈ 0.488 µM) | 0.2 µg/mL (≈ 0.25 µM) | 0.2 µg/mL (≈ 0.25 µM) | 0.2 µg/mL (≈ 0.25 µM) | 0.78 µg/mL (≈ 0.975 µM) | 0.05 µg/mL (≈ 0.0625 µM) | –
